Legend:
[1] = tested on: Head lice, Pediculus humanus capitis; test: Test 1: in-vitro assay with head lice, test substances in basic solution; details: for Vitality of the lice after 120 min: dead / Vitality of the lice after 360 min: dead: number of dead lice of 5 incubated; for Vitality of the lice after 120 min: dead / Vitality of the lice after 360 min: dead / Vitality of the lice after 30 min: immobile / Vitality of the lice after 120 min: mobile / Vitality of the lice after 360 min: mobile: basic solution; for Vitality of the lice after 30 min: immobile: number of immobile lice of 5 incubated; for Vitality of the lice after 30 min: mobile / Vitality of the lice after 120 min: mobile / Vitality of the lice after 360 min: mobile: number of mobile lice of 5 incubated; for Vitality of the lice after 30 min: mobile: basic solution 10% lauryl glucoside, 5% glycerin, pH 6.0
Experimental: Head lice, Pediculus humanus capitis, were obtained by combing infested children from whom assent and consent from the parents had been obtained.
Lice were used for the experiments mostly immediately, but not later than 4 hours after removing from the head. Adult lice, mixed sexes, were fully immersed in the test solutions for 3 to 15 minutes, then thoroughly rinsed with plenty of water to remove any residuals of the test medication. Three replicates of 5 or 10 lice each, plus one control for each batch of lice, were used for any test formulation. The lice were transferred to dry filter paper and kept for observation for up to 24 hours.
The solutions were formulated by addition of the tests substances listed in Table 1 to a basic solution consisting of 10% lauryl glucoside, 5% glycerin and purified water ad 100% and adjusted to pH 6.0 with citric acid. In each test solution 5 lice were incubated, in the controls consisting of the basic solution without any additions 10 lice were incubated.
“Dead” means that neither movements of the legs nor of the intestine were observed.
At 30 min only mobile or immobile lice were observed, whereas dead lice were observed only at 120 and 360 min.

[2] = tested on: Aedes aegypti larvae; test: Naringin against Aedes aegypti larvae, experiments in applicant's laboratory; details: thousand fold higher concentration of naringin than in the literature, without acetonitrile in the assay
From the text: A putative insecticidal activity of naringin is of interest in the present context.

Structure (SMILES) | Vitality of the lice after 120 min: dead [1] | Vitality of the lice after 360 min: dead [1] | Vitality of the lice after 30 min: immobile [1] | Vitality of the lice after 30 min: mobile [1] | Vitality of the lice after 120 min: mobile [1] | Vitality of the lice after 360 min: mobile [1] | killing of Aedes aegypti larvae [2]
COc1ccc([C@@H]2CC(=O)c3c(O)cc(O)cc3O2)cc1O [1.0% hesperetin, (S)-2,3-dihydro-5,7-dihydroxy-2-(3-hydroxy-4-methoxyphenyl)-4H-1-benzopyran-4-one] | 0 | 0 | 0 | 5 | 5 | 5 | –
COc1ccc([C@@H]2CC(=O)c3c(O)cc(O[C@@H]4O[C@H](CO[C@@H]5O[C@@H](C)[C@H](O)[C@@H](O)[C@H]5O)[C@@H](O)[C@H](O)[C@H]4O)cc3O2)cc1O [1.0% hesperidin, (2S)-7-((6-O-(6-desoxy-α-L-mannopyranosyl)-β-D-glucopyranosyl)oxy)-2,3-dihydro-5-hydroxy-2-(3-hydroxy-4-methoxyphenyl)-4H-1-benzopyran-4-one] | 0 | 0 | 0 | 5 | 5 | 5 | –
O=C1C[C@@H](c2ccc(O)cc2)Oc2cc(O)cc(O)c21 [1.0% naringenin, (S)-2,3-dihydro-5,7-dihydroxy-2-(4-hydroxyphenyl)-4H-1-benzopyran-4-one] | 0 | 0 | 0 | 5 | 5 | 5 | –
C[C@@H]1O[C@@H](O[C@H]2[C@H](Oc3cc(O)c4c(c3)O[C@H](c3ccc(O)cc3)CC4=O)O[C@H](CO)[C@@H](O)[C@@H]2O)[C@H](O)[C@H](O)[C@H]1O [1.0% naringin, 7-[[2-O-(6-desoxy-α-L-mannopyra-nosyl)-β-D-glucopyranosyl]oxy]-2,3-dihydro-5-hydroxy-2-(4-hydroxy-phenyl)-4H-1-benzopyran-4-one] | 0 | 0 | 0 | 5 | 5 | 5 | did not kill
CCCCCCCCCCCCCCCCCCCCCC[N+](C)(C)C.[Cl-] [2.0% behentrim., behentrimonium chloride] | 0 | 0 | 0 | 5 | 5 | 5 | –
CCCCCCCCCCCCCCCC(=O)NCCC[N+](C)(C)C.[Cl-] [2.0% palmitamidopr., palmitamidopropyltrimonium chloride] | 0 | 1 | 0 | 5 | 5 | 4 | –

— US10499637B2, “Compositions comprising flavonoid-containing extracts from plants of the genus citrus and/or isolated citrus flavonoids and specific cationic surface active agents, and said composition for use as an agent for treating infestations with head lice” (MEDA AB, priority 2009, dated 2019)
